Read-outs that look alike come from different tables or passages of the source.

Common to all, as to format: cell-based
The target in experiment [1] is T1, GATA4–NKX2-5 transcriptional synergy (Mus musculus, UniProt P42582+Q08369).
T1 construct: expressed in transfected cells; host or cells: COS-1
Briefly: GATA4–NKX2-5 transcriptional synergy luciferase reporter assay (3xNKE reporter, COS-1 cells). The note with it: for activity at 3 µM / activity at 10 µM: COS-1; for Synergy (% of control) Mean ± SD: 10 μM, COS-1 cells, 24 h.

Experiment [2] has as its target T2, NKX2-5 transcriptional activity (Mus musculus, UniProt P42582).
T2 construct: expressed in transfected cells; host or cells: COS-1
Briefly: NKX2-5 luciferase reporter assay (3xNKE reporter, COS-1 cells). The note with it: for activity at 3 µM: COS-1, read-out: NKX.3µM.

Experiment [3] addresses T3, GATA4 transcriptional activity (Mus musculus, UniProt Q08369).
T3 construct: expressed in transfected cells; host or cells: COS-1
The experiment in a line: GATA4 luciferase reporter assay (tandem GATA-site reporter, COS-1 cells). The note with it: for activity at 3 µM: COS-1; for GATA4 (% of control) Mean ± SD: 10 μM, COS-1 cells, 24 h.

Where [4] appears, read: 3 µM, luciferase reporter activity, % of control.
The mark [5] stands for this setting: 3 µM, luciferase reporter activity relative to control.
Where [6] appears, read: 10 µM, luciferase reporter activity relative to control.

T3 sequence (Q08369 whole entry): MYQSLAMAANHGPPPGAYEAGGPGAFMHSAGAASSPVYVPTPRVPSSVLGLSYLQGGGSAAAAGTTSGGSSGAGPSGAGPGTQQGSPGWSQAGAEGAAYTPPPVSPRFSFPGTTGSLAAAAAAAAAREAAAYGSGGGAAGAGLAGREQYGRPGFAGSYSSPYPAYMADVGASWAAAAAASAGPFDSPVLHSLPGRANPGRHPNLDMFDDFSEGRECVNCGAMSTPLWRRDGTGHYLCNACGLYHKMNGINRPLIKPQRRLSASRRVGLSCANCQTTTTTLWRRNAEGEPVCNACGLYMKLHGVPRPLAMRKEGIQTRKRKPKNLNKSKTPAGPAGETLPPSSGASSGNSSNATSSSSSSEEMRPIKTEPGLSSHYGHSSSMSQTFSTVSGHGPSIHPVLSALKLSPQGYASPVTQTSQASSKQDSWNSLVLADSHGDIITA
T1 sequence (Q08369 whole entry): as above
T1 sequence (P42582 whole entry): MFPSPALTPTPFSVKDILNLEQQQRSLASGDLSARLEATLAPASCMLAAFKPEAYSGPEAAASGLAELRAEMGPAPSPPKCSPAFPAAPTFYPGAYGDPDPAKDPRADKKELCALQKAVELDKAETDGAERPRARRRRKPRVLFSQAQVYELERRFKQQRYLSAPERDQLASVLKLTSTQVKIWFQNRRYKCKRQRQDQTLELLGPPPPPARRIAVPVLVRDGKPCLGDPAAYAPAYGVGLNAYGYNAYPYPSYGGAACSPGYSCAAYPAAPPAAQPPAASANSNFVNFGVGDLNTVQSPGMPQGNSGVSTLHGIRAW
T2 sequence (P42582 whole entry): as above

`CCN(CC)c1ccc(NC(=O)c2c(-c3ccccc3)noc2C)cc1` [Compound 1, N-[4-(Diethylamino)phenyl]-5-methyl-3-phenylisoxazole-4-carboxamide]: the activity at 3 µM in experiment [1] (setting [4]) came out at 73.7%; in experiment [2] (setting [4]), 76%; in experiment [3] (setting [4]) it was 92.1%.

As to `Cc1onc(-c2ccccc2)c1C(=O)N(C1=NC(C)CS1)c1ccc(Cl)cc1` (centres unmarked) [Compound 2], the “Synergy (% of control) Mean ± SD” value in experiment [1] was 170 % of control. For the same compound, the values for the activity at 3 µM in experiment [1] (setting [4]), in experiment [2] (setting [4]) and in experiment [3] (setting [4]) were 130%, 102% and 145%, respectively. Further, the activity at 10 µM in experiment [1] (10 µM, luciferase reporter activity, % of control) is 166%.

Consider `Cc1onc(-c2ccccc2)c1COc1ccc(C(=O)OCCC#N)cc1` [Compound 35a, 2-Cyanoethyl 4-[(5-Methyl-3-phenylisoxazol-4-yl)methoxy]benzoate], for which the activity at 3 µM in experiment [1] (setting [5]) came out at 27.5%; in experiment [2] (setting [5]) it was 39.5%; in experiment [3] (setting [5]), 46.9%.

For `CCN(CC)c1ccc(NC(=O)c2cnsc2)cc1` [Compound 47s], the results for the activity at 3 µM in experiment [1] (setting [5]), in experiment [2] (setting [5]) and in experiment [3] (setting [5]) were 66.9%, 41.8% and 128%, respectively.

On to `CCC(=O)N(Cc1ccc(N(CC)CC)cc1)c1c(-c2ccccc2)noc1C` [Compound 58], for which the activity at 10 µM in experiment [1] (setting [6]) came to 22.3%. The activity at 3 µM was 73.7% in experiment [2] (setting [5]) and 70.3% in experiment [3] (setting [5]).

For `COc1ccc(-c2cc(NC(=O)c3ccc(C(C)(C)C)cc3)n[nH]2)cc1` [Compound 72], the “effect on GATA4–NKX2-5 transcriptional synergy (in words)” value in experiment [1] is reported as “inhibition potency”. Besides, the values for the activity at 3 µM in experiment [1] (setting [5]), in experiment [2] (setting [5]) and in experiment [3] (setting [5]) were 66%, 74.8% and 70.5%, respectively. Further, the activity at 10 µM in experiment [1] (setting [6]) came out at 49.5%. In addition, in experiment [3], the “GATA4 (% of control) Mean ± SD” value is 40 % of control.

As for “N-[4-(Diethylamino)phenyl]-3-methyl-5-(4-methyl-1,2,3-thiadiazol-5-yl)isoxazole-4-carboxamide [Compound 47c]”, in experiment [1] (setting [5]), the Synergy.3µM was found to be 45.37. For the same compound, the “Synergy (% of control) Mean ± SD” value in experiment [1] is 24 ± 0.9 % of control. In experiment [1] (setting [6]), the Synergy.10µM is 23.55. Also, the NKX.3µM in experiment [2] (setting [5]) came to 33.64. Moreover, the “NKX2-5 (% of control) Mean ± SD” value in experiment [2] (10 μM, COS-1 cells, 24 h) is given as 21 ± 0.88 % of control. Moreover, the NKX.10µM in experiment [2] (setting [6]) is on record as 20.92. Besides, the GATA.3µM in experiment [3] (setting [5]) is given as 61.94. Also, in experiment [3], the “GATA4 (% of control) Mean ± SD” value is 68 ± 9.1 % of control. Besides, the GATA.10µM in experiment [3] (setting [6]) came out at 68.28.

The record behind these values is PMC7076710, “Synthesis, Identification, and Structure–Activity Relationship Analysis of GATA4 and NKX2-5 Protein–Protein Interaction Modulators” (Journal of Medicinal Chemistry, 2019).
